Entries after “also recorded” stand apart in the source; their conditions may differ.
Experiments:
clinical = assay: clinical; set-up: species or system patients; details: human, in vivo
Excerpt: The optimal dose and schedule of gimatecan stems mainly from the putative therapeutic window identified from the PK/PD analysis of completed phase I data. The target range of cumulative gimatecan cycle exposure (AUC 5,000-10,000 (ng)(hr)/mL) was selected because it produces partial responses and yet is below the exposure where grade III/IV neutropenia and thrombocytopenia adverse events became evident (FIG. 1). […] This may explain why toxicity could not be differentiated among the three schedules; all three schedules exceeded the putative effective daily exposure and were in a potentially toxic range. […] The flat dose is dosed every third day, or once every three days, or every 72 hours, or at one half-life to avoid potential accumulation. The starting doses are chosen to target a systemic exposure of 200-400 (ng)(hr)/mL (the “therapeutic window”) once every three days.

[1] = Clinical pharmacokinetics (disposition) of oral gimatecan in phase I patients with refractory malignancies; type: in vivo
Protocol: The disposition of oral gimatecan is evaluated in patients with refractory malignancies administered on a daily schedule for 5, 10, or 15 consecutive days or a weekly schedule for 3 weeks of a 28 day cycle. The disposition of gimatecan using these four schedules are depicted in FIGS. 3 (a-d). Clinical pharmacokinetics is assessed on the first and last days of the first cycle of daily dosing. […] However, patients were dosed based on their body surface area. Patients who responded to gimatecan had taken 0.45 mg, 0.9 mg, 1.1 mg or 1.6 mg which made it difficult to pick an effective dose.

With `CC[C@@]1(O)C(=O)OCc2c1cc1n(c2=O)Cc2c-1nc1ccccc1c2/C=N/OC(C)(C)C` [gimatecan, 7-(t-butoxy)imino methyl camptothecin] the AUC at 1 day (clinical) was 200 to 400 ng·h/mL, the AUC at 1 cycle (clinical; iv) was 5000 to 10000 ng·h/mL and the “body surface area as predictor of gimatecan clearance” value ([1]; 78 patients receiving four schedules) was “lack of correlation; also recorded: not a good predictor; also recorded: not predicted by body surface area”. For the same molecule, the half-life ([1]; human, in vivo, oral, estimated from 10 patients receiving the weekly schedule, read-out: terminal harmonic mean half-life (converted)) was 86 h, the “apparent oral clearance, dependence on dose” value ([1]; oral, four schedules) was “independent of dose” and the drug accumulation ([1]; weekly and daily schedule) was “Drug accumulation is observed”.
